68 sequences from the supplement of paper PMC11208160 can be followed below.

The data set in a line: recombinant UMI read abundance after kanamycin selection (control-corrected) (log10(CPM+1)); higher = more efficient recombination; extreme values may be limits of the assay; sequences stand for … in AGTGCAGAGAAAATCGGCCAGTTTTCTCTGCCTGCAGTCCGCATGCCGTGGGACCCCTTGGGTTCTAACCTGTTGCCTAGATTTATGCAGCGGACTGCCTTTCTCCCAAAGTGATAAACCGG…AGGTTGGTTTCACT; site = the 11-nt donor. Summed up: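 Sequenced counts of recombinant UMIs were turned into CPM, averaged across replicates and scaled with control-derived factors. The reported figure is log10(CPM+1). Those UMIs, each 12 nt long, tagged donor and donor-binding-loop pairs on a plasmid with a promoterless kanamycin gene, screened as a pool in Escherichia coli with IPTG (0.07 mM) plus kanamycin or without selection.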
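Also: IS621 bridge recombinase in Escherichia coli cells against a fixed T5 target plasmid.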

For “GGGGCACCATGGACCGGTTTTCCCGGTAATCCGTATTTGCA (site GGAGCACCTTG)”, the “recombinant UMI read abundance (log10)” value is 0.
Regarding “GGGGCACCATGGACCGGTTTTCCCGGTAATCCGTATTTGCA (site GGCGCACCTTG)”, the “recombinant UMI read abundance (log10)” value came out at 0.
For “GGGGCACCATGGACCGGTTTTCCCGGTAATCCGTATTTGCA (site GGGACACCTTG)” the value was 0; for “GGGGCACCATGGACCGGTTTTCCCGGTAATCCGTATTTGCA (site GGGCCACCTTG)”, 0.00389.
In the case of “GGGGCACCATGGACCGGTTTTCCCGGTAATCCGTATTTGCA (site GGGGAACCTTG)”, the “recombinant UMI read abundance (log10)” value stood at 0.
For “GGGGCACCATGGACCGGTTTTCCCGGTAATCCGTATTTGCA (site GGGGCAACTTG)” the value was 0; for “GGGGCACCATGGACCGGTTTTCCCGGTAATCCGTATTTGCA (site GGGGCACCTAG)”, 0.0125.
For “GGGGCACCATGGACCGGTTTTCCCGGTAATCCGTATTTGCA (site GGGGCACCTCG)” the value was 0.0103; for “GGGGCACCATGGACCGGTTTTCCCGGTAATCCGTATTTGCA (site GGGGCACCTGG)”, 0; for “GGGGCACCATGGACCGGTTTTCCCGGTAATCCGTATTTGCA (site GGGGCACCTTA)”, 0.011.
For the sequence “GGGGCACCATGGACCGGTTTTCCCGGTAATCCGTATTTGCA (site GGGGCACCTTC)”, the “recombinant UMI read abundance (log10)” value was determined as 0.0181.
With “GGGGCACCATGGACCGGTTTTCCCGGTAATCCGTATTTGCA (site GGGGCACCTTG)”, the “recombinant UMI read abundance (log10)” value was 0.
For “GGGGCACCATGGACCGGTTTTCCCGGTAATCCGTATTTGCA (site GGGGCACCTTT)” the value was 0.0161; for “GGGGCACCATGGACCGGTTTTCCCGGTAATCCGTATTTGCA (site GGGGCAGCTTG)”, 0.
Take “GGGGCACCATGGACCGGTTTTCCCGGTAATCCGTATTTGCA (site GGGGCATCTTG)”: the “recombinant UMI read abundance (log10)” value is 0.
As for “GGGGCACCATGGACCGGTTTTCCCGGTAATCCGTATTTGCA (site GGGGCCCCTTG)”, the “recombinant UMI read abundance (log10)” value came out at 0.0249.
In the case of “GGGGCACCATGGACCGGTTTTCCCGGTAATCCGTATTTGCA (site GGGGCGCCTTG)”, the “recombinant UMI read abundance (log10)” value came to 0.0148.
Consider “GGGGCACCATGGACCGGTTTTCCCGGTAATCCGTATTTGCA (site GGGGCTCCTTG)”, for which the “recombinant UMI read abundance (log10)” value was determined as 0.
“GGGGCACCATGGACCGGTTTTCCCGGTAATCCGTATTTGCA (site GGGGGACCTTG)”: the “recombinant UMI read abundance (log10)” value came to 0.
“GGGGCACCATGGACCGGTTTTCCCGGTAATCCGTATTTGCA (site GGGGTACCTTG)”: the “recombinant UMI read abundance (log10)” value came out at 0.
Consider “GGGGCACCATGGACCGGTTTTCCCGGTAATCCGTATTTGCA (site GGGTCACCTTG)”, for which the “recombinant UMI read abundance (log10)” value was determined as 0.0044.
On to “GGGGCACCATGGACCGGTTTTCCCGGTAATCCGTATTTGCA (site GGTGCACCTTG)”, for which the “recombinant UMI read abundance (log10)” value came out at 0.
“GGGGCACCATGGACCGGTTTTCCCGGTAATCCGTATTTGCA (site GTGGCACCTTG)”: the “recombinant UMI read abundance (log10)” value came out at 0.0102.
Regarding “GGGGCACCATGGACCGGTTTTCCCGGTAATCCGTATTTGCA (site TGGGCACCTTG)”, the “recombinant UMI read abundance (log10)” value worked out at 0.00982.
For “GGGTCACCATGGACCGGTTTTCCCGGTAATCCGTATTTGCC (site GGGTCACCTGG)”, the “recombinant UMI read abundance (log10)” value amounted to 0.
For the sequence “GGTAATCCATGGACCGGTTTTCCCGGTAATCCGTATTTGTT (site CGGAATCCTAA)”, the “recombinant UMI read abundance (log10)” value turned out to be 0.0139.
For “GGTAATCCATGGACCGGTTTTCCCGGTAATCCGTATTTGTT (site GGTAATCCTAA)” the value was 0.518.
“GGTACACCATGGACCGGTTTTCCCGGTAATCCGTATTTGAC (site AGTACACCTGT)”: the “recombinant UMI read abundance (log10)” value came out at 0.
Take “GGTACACCATGGACCGGTTTTCCCGGTAATCCGTATTTGAC (site CGTACACCTGT)”: the “recombinant UMI read abundance (log10)” value was determined as 0.
With “GGTACACCATGGACCGGTTTTCCCGGTAATCCGTATTTGAC (site GGTACACCTGT)”, the “recombinant UMI read abundance (log10)” value amounted to 0.
As for “GGTACACCATGGACCGGTTTTCCCGGTAATCCGTATTTGAC (site TGTACACCTGT)”, the “recombinant UMI read abundance (log10)” value was 0.
For “GGTACCTCATGGACCGGTTTTCCCGGTAATCCGTATTTGAG (site GGTACCTCTCT)”, the “recombinant UMI read abundance (log10)” value worked out at 0.374.
For “GGTACCTCATGGACCGGTTTTCCCGGTAATCCGTATTTGTT (site GGTACATCTAA)” the value was 0.0159.
For “GGTACCTCATGGACCGGTTTTCCCGGTAATCCGTATTTGTT (site GGTACCTCTAA)” the value was 0.187; for “GGTACCTCATGGACCGGTTTTCCCGGTAATCCGTATTTGTT (site GGTACGTCTAA)”, 0.014; for “GGTACCTCATGGACCGGTTTTCCCGGTAATCCGTATTTGTT (site GGTACTTCTAA)”, 0.00378.
Regarding “GGTAGAACATGGACCGGTTTTCCCGGTAATCCGTATTTGGC (site GATAGAACTGC)”, the “recombinant UMI read abundance (log10)” value turned out to be 0.
Turning to “GGTAGAACATGGACCGGTTTTCCCGGTAATCCGTATTTGGC (site GCTAGAACTGC)”, the “recombinant UMI read abundance (log10)” value turned out to be 0.
Turning to “GGTAGAACATGGACCGGTTTTCCCGGTAATCCGTATTTGGC (site GGTAGAACTGC)”, the “recombinant UMI read abundance (log10)” value was 0.973.
With “GGTAGAACATGGACCGGTTTTCCCGGTAATCCGTATTTGGC (site GTTAGAACTGC)”, the “recombinant UMI read abundance (log10)” value turned out to be 0.
As for “GGTATACCATGGACCGGTTTTCCCGGTAATCCGTATTTGGT (site GGTATACCTAC)”, the “recombinant UMI read abundance (log10)” value amounted to 0.00474.
Regarding “GGTATTTCATGGACCGGTTTTCCCGGTAATCCGTATTTGCC (site GGTATTTCTGG)”, the “recombinant UMI read abundance (log10)” value was 0.
For “GGTCCACCATGGACCGGTTTTCCCGGTAATCCGTATTTGCT (site GGTCCACCTAG)” the value was 0.
Take “GGTCGGACATGGACCGGTTTTCCCGGTAATCCGTATTTGCG (site GGTCGGACTCG)”: the “recombinant UMI read abundance (log10)” value is 1.29.
As to “GGTCTGTCATGGACCGGTTTTCCCGGTAATCCGTATTTGAA (site GGTCTGTCTTT)”, the “recombinant UMI read abundance (log10)” value came out at 0.0119.
As to “GGTCTTACATGGACCGGTTTTCCCGGTAATCCGTATTTGAG (site GGTCTTACTCT)”, the “recombinant UMI read abundance (log10)” value was 0.0687.
For “GGTGCACCATGGACCGGTTTTCCCGGTAATCCGTATTTGCA (site GGAGCACCTTG)” the value was 0.00431; for “GGTGCACCATGGACCGGTTTTCCCGGTAATCCGTATTTGCA (site GGCGCACCTTG)”, 0.0224; for “GGTGCACCATGGACCGGTTTTCCCGGTAATCCGTATTTGCA (site GGGGCACCTTG)”, 0.
In the case of “GGTGCACCATGGACCGGTTTTCCCGGTAATCCGTATTTGCA (site GGTGCACCTTG)”, the “recombinant UMI read abundance (log10)” value amounted to 0.
Turning to “GGTGCGTCATGGACCGGTTTTCCCGGTAATCCGTATTTGTT (site GGTACGTCTAA)”, the “recombinant UMI read abundance (log10)” value came out at 0.0157.
For “GGTGCGTCATGGACCGGTTTTCCCGGTAATCCGTATTTGTT (site GGTCCGTCTAA)” the value was 0.0208; for “GGTGCGTCATGGACCGGTTTTCCCGGTAATCCGTATTTGTT (site GGTGCGTCTAA)”, 0.668; for “GGTGCGTCATGGACCGGTTTTCCCGGTAATCCGTATTTGTT (site GGTTCGTCTAA)”, 0.0103.
Regarding “GGTGCTGCATGGACCGGTTTTCCCGGTAATCCGTATTTGCT (site GGTGCTGCTAG)”, the “recombinant UMI read abundance (log10)” value is 1.53.
As to “GGTGTAGCATGGACCGGTTTTCCCGGTAATCCGTATTTGGT (site GGTGTAGCTAC)”, the “recombinant UMI read abundance (log10)” value turned out to be 0.0948.
As for “GGTGTGACATGGACCGGTTTTCCCGGTAATCCGTATTTGTG (site GGTGTGACTCA)”, the “recombinant UMI read abundance (log10)” value amounted to 0.68.
Regarding “GGTGTGTCATGGACCGGTTTTCCCGGTAATCCGTATTTGTG (site GGTGTGTCTCA)”, the “recombinant UMI read abundance (log10)” value worked out at 1.16.
For “GGTTAGACATGGACCGGTTTTCCCGGTAATCCGTATTTGCC (site GGATAGACTGG)”, the “recombinant UMI read abundance (log10)” value came to 1.17.
In the case of “GGTTAGACATGGACCGGTTTTCCCGGTAATCCGTATTTGCC (site GGCTAGACTGG)”, the “recombinant UMI read abundance (log10)” value was 1.32.
As to “GGTTAGACATGGACCGGTTTTCCCGGTAATCCGTATTTGCC (site GGGTAGACTGG)”, the “recombinant UMI read abundance (log10)” value is 1.27.
For “GGTTAGACATGGACCGGTTTTCCCGGTAATCCGTATTTGCC (site GGTTAGACTGG)” the value was 1.9; for “GGTTAGTCATGGACCGGTTTTCCCGGTAATCCGTATTTGCC (site GGTTAGTCTGG)”, 2.06.
As for “GGTTCAACATGGACCGGTTTTCCCGGTAATCCGTATTTGTA (site GGTACAACTTA)”, the “recombinant UMI read abundance (log10)” value turned out to be 0.00935.
Regarding “GGTTCAACATGGACCGGTTTTCCCGGTAATCCGTATTTGTA (site GGTCCAACTTA)”, the “recombinant UMI read abundance (log10)” value came out at 0.262.
Take “GGTTCAACATGGACCGGTTTTCCCGGTAATCCGTATTTGTA (site GGTGCAACTTA)”: the “recombinant UMI read abundance (log10)” value came to 0.00737.
For “GGTTCAACATGGACCGGTTTTCCCGGTAATCCGTATTTGTA (site GGTTCAACTTA)” the value was 0.00797; for “GGTTCATCATGGACCGGTTTTCCCGGTAATCCGTATTTGCC (site GGTTCATCTGG)”, 1.07.
